Earlier results on 1 compound are cited in patent publication US7186826B2, “Phosphorus-containing compounds and uses thereof” (ARIAD Gene Therapeutics, Inc., priority 2002, dated 2007).

The conditions of the data set: see WO 03/022807 and 99/15530.

With `CO[C@H]1C[C@@H]2CC[C@@H](C)[C@@](O)(O2)C(=O)C(=O)N2CCCC[C@H]2C(=O)O[C@H]([C@H](C)C[C@@H]2CC[C@H](n3cnnn3)[C@H](OC)C2)CC(=O)[C@H](C)/C=C(\C)[C@@H](O)[C@@H](OC)C(=O)[C@H](C)C[C@H](C)/C=C/C=C/C=C/1C` [ABT-578], the biological half-life result is listed as “shortened”.
